# Patent publication US9810690B2, “Method for screening inhibitors of Ras” (Araxes Pharma LLC, priority 2015, dated 2017)
# Legend:
# [1] = target: T1, RALA G23C (Homo sapiens, UniProt P11233, G23C); experiment: Rate constant of covalent reaction of competition probes with RALA mutant (mass spectrometry); format: binding
# T1 construct: (residues 11-183, either WT or G23C); hexahistidine (TEV-cleavable); made in house; host or cells: Escherichia coli BL21 (DE)
# T1 sequence (P11233 11-183 G23C): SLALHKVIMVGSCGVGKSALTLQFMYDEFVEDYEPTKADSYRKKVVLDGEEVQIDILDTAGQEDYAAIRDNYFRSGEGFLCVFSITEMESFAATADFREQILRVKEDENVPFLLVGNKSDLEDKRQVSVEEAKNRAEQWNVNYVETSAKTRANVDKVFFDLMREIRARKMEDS
# Description: Hexahistidine-tagged recombinant human RalA (“hexahistidine” disclosed as SEQ ID NO: 49) (residues 11-183, either WT or G23C) was transformed into Escherichia coli (BL21 (DE)). After the bacterial grew to an OD(600) of 0.4-0.6 in Terrific Broth containing 30 mg/L kanamycin at 37° C., induction was carried out at 18° C. using 0.5 mM IPTG and growth was continued at 18° C. for about 18 h. The bacteria were harvested by centrifugation and the obtained pellet was either stored at −80° C. or used freshly for the subsequent steps.
# (§1) RALA mutant proteins were produced with one mutation to cysteine at the 23 position (G23C) relative to SEQ ID NO: 8 when optimally aligned. KRAS mutant proteins were produced with one mutation to cysteine at the 12 position (G12C) relative to SEQ ID NO: 1 when optimally aligned. The RALA and KRAS mutants were tested for reactivity (e.g., covalent modification of the mutant) with a panel of competition probes that bind the Switch II binding pocket and covalently modify the substituted amino acid with appropriately placed electrophiles based on modeling/docking studies. One such inhibitor covalently bound to RAS (via G12) is depicted in FIG. 2. Screening was carried out by mass spectrometry on an Agilent RapidFire or ThermoScientific Q Exactive system.
# [2] = target: T2, KRAS D92C/G12D (Homo sapiens, UniProt P01116, D92C/G12D); experiment: Covalent modification of KRAS mutant by competition probes (TOF mass spectrometry, Agilent RapidFire); format: binding
# T2 construct: made in house
# Description: (§2) KRAS mutant proteins were produced with one substituted amino acid selected from E62C, D92C, and H95C and with either glycine at the 12 position (WT) or an additional mutation to aspartic acid at the 12 position (G12D) relative to SEQ ID NO: 1 when optimally aligned. These mutations are depicted on an X-ray crystal structure in FIG. 2. These mutants were tested for reactivity (e.g., covalent modification of the KRAS mutant) with a panel of competition probes that bind the Switch II binding pocket and covalently modify the substituted amino acid with appropriately placed electrophiles based on modeling/docking studies. Screening was carried out by time-of-flight (TOF) mass spectrometry on an Agilent RapidFire system. […] Competition probe reactivity with the G12D mutant or other 12 position mutants may be optimized by iterative structural modification and testing.
# [3] = target: T3, KRAS D92C/WT (Homo sapiens, UniProt P01116, D92C); experiment: as above; format: binding
# T3 construct: made in house
# Description: as §2
# [4] = target: T4, KRAS E62C/G12D (Homo sapiens, UniProt P01116, E62C/G12D); experiment: as above; format: binding
# T4 construct: made in house
# Description: as §2
# [5] = target: T5, KRAS E62C/WT (Homo sapiens, UniProt P01116, E62C); experiment: as above; format: binding
# T5 construct: made in house
# Description: as §2
# [6] = target: T6, KRAS H95C/G12D (Homo sapiens, UniProt P01116, G12D/H95C); experiment: as above; format: binding
# T6 construct: made in house
# Description: as §2
# [7] = target: T7, K-Ras D92C (Homo sapiens, UniProt P01116, D92C); experiment: QQQ mass spectrometry competition assay for K-Ras D92C binding using competition probe CP-008; details: CP-008 (100 nM); test compound over a range of concentrations; incubated for 6 h; FIG. 6
# T7 construct: made in house
# Description: The GDP-loaded K-Ras D92C protein (which also contains a histidine tag) was diluted in a HEPES containing assay buffer shortly before use in the QQQ-assay.
# To start the assay an internal nonreactive control compound and competition probe compound (CP-008) were added to the protein solution to form a master mix. The master mix was quickly dispersed in a 96-well plate followed by addition a DMSO stock of the compound of interest. […]
# To quench the reaction, the reaction mix was transferred to 2% of formic acid in water (0.2% final in the quenched reaction) in a second plate. After sealing the second plate and quick centrifugation the samples were frozen at −80° C.
# The frozen samples were sent on dry ice to Pure Honey Technologies for QQQ-quantitation to determine probe and internal control compound amount in each well. For analysis of the obtained data, the ratio of probe to internal control compound was calculated for each well. The assay window was determined by a negative control (DMSO only, no inhibition) and a positive control (100 μM final of CP-008 at a time point where the probe is fully reacted with protein; assigned 100% inhibition) and allowed the calculation of inhibition of probe depletion by the compound of interest.
# [8] = target: T8, KRAS G12C (Homo sapiens, UniProt P01116, G12C); experiment: Rate constant of covalent reaction of competition probes with KRAS mutant (mass spectrometry); format: binding
# T8 construct: made in house
# Description: as §1
# [9] = target: T9, KRAS H95C/WT (Homo sapiens, UniProt P01116, H95C); experiment: Covalent modification of KRAS mutant by competition probes (TOF mass spectrometry, Agilent RapidFire); format: binding
# T9 construct: made in house
# Description: as §2
structure (smiles),measurement,setting,value
C=CC(=O)N1CCN(c2ncnc3cc(Cl)c(-c4ccccc4)cc23)CC1 [CP-014],"Rate Constant for Reaction with Indicated Protein, RALA G23C",[1],4.0 M⁻¹ s⁻¹
C=CS(=O)(=O)NC1CCCN(c2nc(N3CCN(C(C)=O)CC3)c3cc(Cl)c(-c4c(O)cccc4F)c(F)c3n2)C1 (centres unmarked) [CP-001],"% Covalent Modification with Indicated Protein at 6 hr, D92C/G12D",[2]; probe 30 μM,12%
same,"% Covalent Modification with Indicated Protein at 6 hr, D92C/WT",[3]; probe 30 μM,97%
same,"% Covalent Modification with Indicated Protein at 6 hr, E62C/G12D",[4]; probe 30 μM,4%
same,"% Covalent Modification with Indicated Protein at 6 hr, E62C/WT",[5]; probe 30 μM,72%
same,"% Covalent Modification with Indicated Protein at 6 hr, H95C/G12D",[6]; probe 30 μM,60%
"CN(C)CCCOc1nc(N2CCN(C=O)CC2)c2cc(Cl)c(-c3cc(O)cc4ccccc34)c(F)c2n1 [CP-024, 4-(6-chloro-2-(3-(dimethylamino)propoxy)-8-fluoro-7-(3-hydroxynaphthalen-1-yl)quinazolin-4-yl)piperazine-1-carbaldehyde]",inhibition of competition probe (CP-008) depletion by D92C K-Ras,[7],less CP-008 is bound to K-Ras
C=CC(=O)N1CC(N2CCN(C(=O)CNc3cc(C4(C)CC4)c(Cl)cc3O)CC2)C1 [CP-008],"Rate Constant for Reaction with Indicated Protein, RALA G23C",[1],<0.2 M⁻¹ s⁻¹
same,"Rate Constant for Reaction with Indicated Protein, KRAS G12C",[8],76 M⁻¹ s⁻¹
C=CC(=O)N1CCC(Nc2nc(N3CCN(C(C)=O)CC3)c3cc(Cl)c(-c4c(O)cccc4F)c(F)c3n2)C1 (centres unmarked) [CP-006],"% Covalent Modification with Indicated Protein at 6 hr, D92C/G12D",[2]; probe 30 μM,5%
same,"% Covalent Modification with Indicated Protein at 6 hr, D92C/WT",[3]; probe 30 μM,93%
same,"% Covalent Modification with Indicated Protein at 6 hr, E62C/G12D",[4]; probe 30 μM,2%
same,"% Covalent Modification with Indicated Protein at 6 hr, E62C/WT",[5]; probe 30 μM,14%
same,"% Covalent Modification with Indicated Protein at 6 hr, H95C/G12D",[6]; probe 30 μM,4%
same,"% Covalent Modification with Indicated Protein at 6 hr, H95C/WT",[9]; probe 30 μM,19%
C=CC(=O)N1CCN(c2ncnc3cc(Cl)c(-c4ccc(Cl)cc4)cc23)CC1 [CP-013],"Rate Constant for Reaction with Indicated Protein, RALA G23C",[1],10.2 M⁻¹ s⁻¹
C=CC(=O)N1CCN(c2ncnc3c(F)c(-c4c(O)cccc4F)c(Cl)cc23)CC1 [CP-012],"Rate Constant for Reaction with Indicated Protein, RALA G23C",[1],<1 M⁻¹ s⁻¹
same,"Rate Constant for Reaction with Indicated Protein, KRAS G12C",[8],310 M⁻¹ s⁻¹
C=CC(=O)N1CCN(c2ncnc3cc(Cl)c(-c4ccc(C#N)cc4)cc23)CC1 [CP-016],"Rate Constant for Reaction with Indicated Protein, RALA G23C",[1],2.6 M⁻¹ s⁻¹
C=CC(=O)N1CCN(c2ncnc3cc(Cl)c(-c4ccc(Cl)s4)cc23)CC1 [CP-019],"Rate Constant for Reaction with Indicated Protein, RALA G23C",[1],6.3 M⁻¹ s⁻¹
C=CC(=O)NC1CCN(c2nc(N3CCN(C(C)=O)CC3)c3cc(Cl)c(-c4c(O)cccc4F)c(F)c3n2)C1 (centres unmarked) [CP-004],"% Covalent Modification with Indicated Protein at 6 hr, D92C/WT",[3]; probe 100 μM,4%
same,"% Covalent Modification with Indicated Protein at 6 hr, E62C/G12D",[4]; probe 100 μM,1%
same,"% Covalent Modification with Indicated Protein at 6 hr, E62C/WT",[5]; probe 100 μM,3%
same,"% Covalent Modification with Indicated Protein at 6 hr, H95C/G12D",[6]; probe 100 μM,2%
C=CS(=O)(=O)N1CCC(Nc2nc(N3CCN(C(C)=O)CC3)c3cc(Cl)c(-c4c(O)cccc4F)c(F)c3n2)C1 (centres unmarked) [CP-007],"% Covalent Modification with Indicated Protein at 6 hr, D92C/G12D",[2]; probe 10 μM,29%
same,"% Covalent Modification with Indicated Protein at 6 hr, D92C/WT",[3]; probe 10 μM,99%
same,"% Covalent Modification with Indicated Protein at 6 hr, E62C/G12D",[4]; probe 10 μM,19%
same,"% Covalent Modification with Indicated Protein at 6 hr, E62C/WT",[5]; probe 10 μM,96%
same,"% Covalent Modification with Indicated Protein at 6 hr, H95C/G12D",[6]; probe 10 μM,17%
same,"% Covalent Modification with Indicated Protein at 6 hr, H95C/WT",[9]; probe 10 μM,43%
C=CS(=O)(=O)NC1CCN(c2nc(N3CCN(C(C)=O)CC3)c3cc(Cl)c(-c4c(O)cccc4F)c(F)c3n2)C1 (centres unmarked) [CP-003],"% Covalent Modification with Indicated Protein at 6 hr, D92C/G12D",[2]; probe 30 μM,8%
same,"% Covalent Modification with Indicated Protein at 6 hr, D92C/WT",[3]; probe 30 μM,89%
same,"% Covalent Modification with Indicated Protein at 6 hr, E62C/G12D",[4]; probe 30 μM,11%
same,"% Covalent Modification with Indicated Protein at 6 hr, E62C/WT",[5]; probe 30 μM,86%
same,"% Covalent Modification with Indicated Protein at 6 hr, H95C/G12D",[6]; probe 30 μM,12%
C=CC(=O)N1CCN(c2ncnc3cc(Cl)c(-c4ccc(Br)cc4)cc23)CC1 [CP-015],"Rate Constant for Reaction with Indicated Protein, RALA G23C",[1],9.0 M⁻¹ s⁻¹
C=CC(=O)N1CCN(c2ncnc3cc(Cl)c(-c4ccc(C)s4)cc23)CC1 [CP-020],"Rate Constant for Reaction with Indicated Protein, RALA G23C",[1],19 M⁻¹ s⁻¹
C=CC(=O)N1CCN(c2ncnc3cc(Cl)c(-c4cccs4)cc23)CC1 [CP-018],"Rate Constant for Reaction with Indicated Protein, RALA G23C",[1],17 M⁻¹ s⁻¹
C=CC(=O)N1CCN(c2ncnc3cc(Cl)c(-c4ccccc4Cl)cc23)CC1 [CP-011],"Rate Constant for Reaction with Indicated Protein, RALA G23C",[1],5.0 M⁻¹ s⁻¹
same,"Rate Constant for Reaction with Indicated Protein, KRAS G12C",[8],1.1 M⁻¹ s⁻¹
C=CC(=O)NC1CCCN(c2nc(N3CCN(C(C)=O)CC3)c3cc(Cl)c(-c4c(O)cccc4F)c(F)c3n2)C1 (centres unmarked) [CP-002],"% Covalent Modification with Indicated Protein at 6 hr, D92C/WT",[3]; probe 100 μM,2%
same,"% Covalent Modification with Indicated Protein at 6 hr, E62C/G12D",[4]; probe 100 μM,1%
same,"% Covalent Modification with Indicated Protein at 6 hr, E62C/WT",[5]; probe 100 μM,6%
same,"% Covalent Modification with Indicated Protein at 6 hr, H95C/G12D",[6]; probe 100 μM,5%
"CC(=O)N1CCN(c2nc(OCCCN(C)C)nc3c(F)c(-c4cc(O)cc5ccccc45)c(Cl)cc23)CC1 [CP-023, 1-(4-(6-chloro-2-(3-(dimethylamino)propoxy)-8-fluoro-7-(3-hydroxynaphthalen-1-yl)quinazolin-4-yl)piperazin-1-yl)ethanone]",inhibition of competition probe (CP-008) depletion by D92C K-Ras,[7],less CP-008 is bound to K-Ras
C=CS(=O)(=O)N1CCC(Nc2nc(N3CCN(C(C)=O)CC3)c3cc(Cl)c(-c4c(O)cccc4F)c(F)c3n2)CC1 [CP-005],"% Covalent Modification with Indicated Protein at 6 hr, D92C/G12D",[2]; probe 30 μM,11%
same,"% Covalent Modification with Indicated Protein at 6 hr, D92C/WT",[3]; probe 30 μM,28%
same,"% Covalent Modification with Indicated Protein at 6 hr, E62C/G12D",[4]; probe 30 μM,6%
same,"% Covalent Modification with Indicated Protein at 6 hr, E62C/WT",[5]; probe 30 μM,82%
same,"% Covalent Modification with Indicated Protein at 6 hr, H95C/G12D",[6]; probe 30 μM,12%
same,"% Covalent Modification with Indicated Protein at 6 hr, H95C/WT",[9]; probe 30 μM,21%
C=CC(=O)N1CCN(C(=O)c2cc(-c3cc(Cl)ccc3Cl)c(Cl)cc2O)CC1 [CP-010],"Rate Constant for Reaction with Indicated Protein, RALA G23C",[1],2.9 M⁻¹ s⁻¹
same,"Rate Constant for Reaction with Indicated Protein, KRAS G12C",[8],2.3 M⁻¹ s⁻¹
C=CC(=O)N1CCN(c2ncnc3cc(Cl)c(-c4ccc(O)cc4)cc23)CC1 [CP-017],"Rate Constant for Reaction with Indicated Protein, RALA G23C",[1],6.0 M⁻¹ s⁻¹
C=CC(=O)N1CCN(c2ccc(-c3cc(O)ccc3Cl)cc2C#N)CC1 [CP-009],"Rate Constant for Reaction with Indicated Protein, RALA G23C",[1],<0.2 M⁻¹ s⁻¹
same,"Rate Constant for Reaction with Indicated Protein, KRAS G12C",[8],5.8 M⁻¹ s⁻¹
